{
  "source": "patent US20200384053A1",
  "about": "“Ophthalmic Compositions and Medical Uses Thereof in Treatment of Myopia” (SunDragon Bio-medical Technology Co., priority 2019, published 2020)",
  "system": "Golden Syrian hamsters",
  "assay": "Monocular form deprivation (MFD) myopia animal model, axial length by A-scan ultrasonography",
  "assay_type": "in vivo",
  "conditions": "after 21-day daily eye drop treatment",
  "method": "0.125% atropine eye drop was prepared under sterile conditions by dilution of 1% atropine ophthalmic solution with artificial tears (commercially available from Alcon Laboratories, Inc., Fort Worth, Tex., USA). The Extract A and/or Extract C were mixed with 5 ml artificial tears (commercially available from Alcon Laboratories, Inc., Fort Worth, Tex., USA) to reach a final concentration of 150 ng/ml by an oscillator.\n3-week old Golden Syrian hamsters, each weighing 80 to 90 grams, were used for experiments. All animals were kept in a 12-hour light/dark cycle. All procedures were approved by the Institutional Animal Care and Use Committee of China Medical University and were conducted in accordance with the guidelines of the Use of Animals in Ophthalmic and Vision Research. Hamsters were raised with right eyelid fusion for 21 days. MFD was induced in the right eyes of the animals, with their left eyes serving as a control. The animals were randomly assigned to […] receiving daily applications of artificial tears or the eye drops prepared in Example 8, respectively, to both eyes. The treatment lasted for 21 days. The axial lengths of both eyes in each animal were measured on the 21st day following the start of the treatment by A-scan ultrasonography (PacScan 300 Plus, NY, USA).",
  "data": [
    {"smiles": "CN1[C@@H]2CC[C@H]1C[C@@H](OC(=O)C(CO)c1ccccc1)C2", "note": "(some centres unmarked) [Atropine, atropine]", "values": [
      {"measurement": "axial lengths of the non-MFD (left) eyes", "setting": "Control 0.36±0.05 mm, differences not statistically significant", "value": "0.33±0.03", "unit": "mm"},
      {"measurement": "axial lengths of the MFD (right) eyes", "setting": "extracts 150 ng/ml, atropine 0.125%, Control 0.436±0.06 mm, p<0.05 vs Control", "value": "0.358±0.01", "unit": "mm"}
    ]}
  ]
}
